In patent US9028845B2, “Chimeric immunomodulatory compounds and methods of using the same-IV” (Dynavax Technologies Corporation, priority 2001, dated 2015):
Strand notation (5' to 3'): a small letter for the sugar, then the base; units joined by * are phosphorothioate-linked, units joined directly phosphodiester-linked; [ ] holds rarer units or linkages, { } end groups; capitals alone tell only the bases. d = 2'-deoxy (DNA)

Tested on: human PBMCs
Assay: Human PBMC cytokine response assay (IFN-γ and IFN-α in cell-free medium by ELISA), with or without cPLGA
Assay type: cell-based
[1] = Donor 5, 20 μg/ml (mixtures: 20 μg/ml total), 24 h
[2] = Donor 6, 20 μg/ml (mixtures: 20 μg/ml total), 24 h

5′-TGACTGTGAACCTTAGAGATGA-3′ (SEQ ID NO: 3) (dT*dG*dA*dC*dT*dG*dT*dG*dA*dA*dC*dC*dT*dT*dA*dG*dA*dG*dA*dT*dG*dA) [Compound P-7, negative control, reference compound]
IFN-α (pg/ml) Donor 1 (Donor 1, 20 μg/ml, 24 h): 0 pg/mL
IFN-γ (pg/ml) Donor 1 (Donor 1, 20 μg/ml, 24 h): 410 pg/mL
IFN-α (pg/ml) Donor 2 (Donor 2, 20 μg/ml, 24 h): 0 pg/mL
IFN-γ (pg/ml) Donor 2 (Donor 2, 20 μg/ml, 24 h): 51 pg/mL
IFN-α (pg/ml) Donor 3 (Donor 3, 20 μg/ml, 24 h): 0 pg/mL
IFN-γ (pg/ml) Donor 3 (Donor 3, 20 μg/ml, 24 h): 3 pg/mL
IFN-α (pg/ml) Donor 4 (Donor 4, 20 μg/ml, 24 h): 31 pg/mL
IFN-γ (pg/ml) Donor 4 (Donor 4, 20 μg/ml, 24 h): 8 pg/mL
IFN-α (pg/ml) Donor 5 [1]: 20 pg/mL
IFN-γ (pg/ml) Donor 5 [1]: 7 pg/mL
IFN-α (pg/ml) Donor 6 [2]: 94 pg/mL
IFN-γ (pg/ml) Donor 6 [2]: 66 pg/mL
IFN-α (pg/ml) Donor 7 (Donor 7, 20 μg/ml, 24 h): 0 pg/mL
IFN-γ (pg/ml) Donor 7 (Donor 7, 20 μg/ml, 24 h): 2 pg/mL
IFN-α (pg/ml) Donor 8 (Donor 8, 20 μg/ml, 24 h): 0 pg/mL
IFN-γ (pg/ml) Donor 8 (Donor 8, 20 μg/ml, 24 h): 2 pg/mL
IFN-α Donor 9 (Donor 9, 20 μg/ml, 24 h): 0
IFN-γ Donor 9 (Donor 9, 20 μg/ml, 24 h): 5
IFN-α Donor 10 (Donor 10, 20 μg/ml, 24 h): 3
IFN-γ Donor 10 (Donor 10, 20 μg/ml, 24 h): 2
IFN-α Donor 11 (Donor 11, 20 μg/ml, 24 h): 1
IFN-γ Donor 11 (Donor 11, 20 μg/ml, 24 h): 3
IFN-α Donor 12 (Donor 12, 20 μg/ml, 24 h): 5
IFN-γ Donor 12 (Donor 12, 20 μg/ml, 24 h): 2
IFN-α (Example 58, 0.8 ug/ml, donor 1): 52 pg/mL
IFN-α (Example 58, 0.8 ug/ml, donor 2): 52 pg/mL
IFN-α (Example 58, 0.8 ug/ml, donor 3): 52 pg/mL
IFN-α (Example 58, 0.8 ug/ml, donor 4): 52 pg/mL
IFN-α mean (Example 58, 0.8 ug/ml, mean of four individuals): 52 pg/mL
IFN-α (Example 58, 4 ug/ml, donor 1): 52 pg/mL
IFN-α (Example 58, 4 ug/ml, donor 2): 52 pg/mL
IFN-α (Example 58, 4 ug/ml, donor 3): 52 pg/mL
IFN-α (Example 58, 4 ug/ml, donor 4): 52 pg/mL
IFN-α mean (Example 58, 4 ug/ml, mean of four individuals): 52 pg/mL
IFN-α (Example 58, 20 ug/ml, donor 1): 52 pg/mL
IFN-α (Example 58, 20 ug/ml, donor 2): 52 pg/mL
IFN-α (Example 58, 20 ug/ml, donor 3): 52 pg/mL
IFN-α (Example 58, 20 ug/ml, donor 4): 52 pg/mL
IFN-α mean (Example 58, 20 ug/ml, mean of four individuals): 52 pg/mL
IFN-α (Example 59, 0.8 ug/ml, donor 48): 102 pg/mL
IFN-α (Example 59, 0.8 ug/ml, donor 177): 102 pg/mL
IFN-α (Example 59, 0.8 ug/ml, donor 272): 102 pg/mL
IFN-α (Example 59, 0.8 ug/ml, donor 273): 102 pg/mL
IFN-α mean (Example 59, 0.8 ug/ml, mean of four donors): 102 pg/mL
IFN-α (Example 59, 4 ug/ml, donor 48): 102 pg/mL
IFN-α (Example 59, 4 ug/ml, donor 177): 102 pg/mL
IFN-α (Example 59, 4 ug/ml, donor 272): 102 pg/mL
IFN-α (Example 59, 4 ug/ml, donor 273): 102 pg/mL
IFN-α mean (Example 59, 4 ug/ml, mean of four donors): 102 pg/mL
IFN-α (Example 59, 20 ug/ml, donor 48): 102 pg/mL
IFN-α (Example 59, 20 ug/ml, donor 177): 102 pg/mL
IFN-α (Example 59, 20 ug/ml, donor 272): 102 pg/mL
IFN-α (Example 59, 20 ug/ml, donor 273): 102 pg/mL
IFN-α mean (Example 59, 20 ug/ml, mean of four donors): 102 pg/mL
IFN-α (Table 9, donor 28089): 0 pg/mL
IFN-γ (Table 9, donor 28089): 0 pg/mL
IFN-α (Table 9, donor 28090): 27 pg/mL
IFN-γ (Table 9, donor 28090): 4 pg/mL
IFN-α (Table 9, donor 28098): 19 pg/mL
IFN-γ (Table 9, donor 28098): 0 pg/mL
IFN-α (Table 9, donor 28099): 37 pg/mL
IFN-γ (Table 9, donor 28099): 2 pg/mL
IFN-α mean (Table 9, mean of donors): 21 pg/mL
IFN-γ mean (Table 9, mean of donors): 1 pg/mL
IFN-α (Table 10, donor 28042): 0 pg/mL
IFN-γ (Table 10, donor 28042): 66 pg/mL
IFN-α (Table 10, donor 28043): 11 pg/mL
IFN-γ (Table 10, donor 28043): 76 pg/mL
IFN-α (Table 10, donor 28044): 22 pg/mL
IFN-γ (Table 10, donor 28044): 26 pg/mL
IFN-α (Table 10, donor 28045): 20 pg/mL
IFN-γ (Table 10, donor 28045): 13 pg/mL
IFN-α mean (Table 10, mean of donors): 13 pg/mL
IFN-γ mean (Table 10, mean of donors): 45 pg/mL
IFN-α (Table 11, donor 28042): 0 pg/mL
IFN-γ (Table 11, donor 28042): 34 pg/mL
IFN-α (Table 11, donor 28043): 0 pg/mL
IFN-γ (Table 11, donor 28043): 19 pg/mL
IFN-α (Table 11, donor 28044): 4 pg/mL
IFN-γ (Table 11, donor 28044): 48 pg/mL
IFN-α (Table 11, donor 28045): 54 pg/mL
IFN-γ (Table 11, donor 28045): 35 pg/mL
IFN-α mean (Table 11, mean of donors): 15 pg/mL
